# Source: US20220281848A1, “PYRAZOLE-SUBSTITUTED PYRROLIDINONES AS HERBICIDES” (FMC Corporation, priority 2019, published 2022)
# Tested on: plants
# Experiment: Test D pre-emergence, other plants of Tables D1 and D3
# Format: in vivo
# Conditions: for damage to plant, ALOMY / damage to plant, AVEFA / damage to plant, BEAVA / damage to plant, BROTE / damage to plant, BRSNN / damage to plant, HORVW / damage to plant, SINAR: pre-emergence, 100=total damage, 0=no damage; for ABUTH damage to plant (100=total damage; 0=no damage) / AMARE damage to plant (100=total damage; 0=no damage) / DIGSA damage to plant (100=total damage; 0=no damage) / ECHCG damage to plant (100=total damage; 0=no damage) / ORYSA damage to plant (100=total damage; 0=no damage) / PANMI damage to plant (100=total damage; 0=no damage) / SETFA damage to plant (100=total damage; 0=no damage): preemergent
# Method: A formulation containing 50 g/L of the test chemical was prepared by dissolving the active ingredient in a mixture of organic solvents and emulsifier, details of which are provided in the table. This formulation was then mixed with a small, variable amount of acetone to aid dissolution, before addition of a 0.2% v/v aqueous solution of an adjuvant, as the aqueous diluent, to form an aqueous spray solution which contains a predetermined concentration of the active ingredient.
# This aqueous spray solution was then sprayed onto plants including maize and wheat that had been seed treated with a herbicide safener, after one day's cultivation (for pre-emergence) or after about 12 days' cultivation (for post-emergence). The plants were grown from seeds sown in standard soil, placed in a glasshouse under controlled conditions (at 24/18° C. or 20/16° C., day/night; 16 h light; 65% humidity). After spray application the plants were then grown in a glasshouse under the same conditions and watered twice daily. After 15 d for post-emergence and 20 DAA for pre-emergence the test was evaluated (100=total damage to plant; 0=no damage to plant).
smiles,measurement,setting,value
CN1CC(c2cnn(C)c2C(F)(F)F)C(C(=O)Nc2cccc(F)c2F)C1=O (racemic) [Compound 25],"damage to plant, ALOMY","rate 15, 20 DAA",0
same,"damage to plant, AVEFA","rate 15, 20 DAA",0
same,"damage to plant, BEAVA","rate 15, 20 DAA",0
same,"damage to plant, BROTE","rate 15, 20 DAA",0
same,"damage to plant, BRSNN","rate 15, 20 DAA",0
same,"damage to plant, HORVW","rate 15, 20 DAA",0
same,"damage to plant, SINAR","rate 15, 20 DAA",0
same,"damage to plant, ALOMY","rate 30, 20 DAA",0
same,"damage to plant, AVEFA","rate 30, 20 DAA",0
same,"damage to plant, BEAVA","rate 30, 20 DAA",0
same,"damage to plant, BROTE","rate 30, 20 DAA",0
same,"damage to plant, BRSNN","rate 30, 20 DAA",0
same,"damage to plant, HORVW","rate 30, 20 DAA",0
same,"damage to plant, SINAR","rate 30, 20 DAA",0
same,"damage to plant, ALOMY","rate 60, 20 DAA",0
same,"damage to plant, AVEFA","rate 60, 20 DAA",0
same,"damage to plant, BEAVA","rate 60, 20 DAA",0
same,"damage to plant, BROTE","rate 60, 20 DAA",0
same,"damage to plant, BRSNN","rate 60, 20 DAA",0
same,"damage to plant, HORVW","rate 60, 20 DAA",0
same,"damage to plant, SINAR","rate 60, 20 DAA",0
same,"damage to plant, ALOMY","rate 130, 20 DAA",0
same,"damage to plant, AVEFA","rate 130, 20 DAA",0
same,"damage to plant, BEAVA","rate 130, 20 DAA",0
same,"damage to plant, BROTE","rate 130, 20 DAA",0
same,"damage to plant, BRSNN","rate 130, 20 DAA",0
same,"damage to plant, HORVW","rate 130, 20 DAA",0
same,"damage to plant, SINAR","rate 130, 20 DAA",0
same,"damage to plant, ALOMY","rate 250, 20 DAA",0
same,"damage to plant, AVEFA","rate 250, 20 DAA",0
same,"damage to plant, BEAVA","rate 250, 20 DAA",0
same,"damage to plant, BROTE","rate 250, 20 DAA",0
same,"damage to plant, BRSNN","rate 250, 20 DAA",0
same,"damage to plant, HORVW","rate 250, 20 DAA",0
same,"damage to plant, SINAR","rate 250, 20 DAA",0
same,"damage to plant, ALOMY","rate 500, 20 DAA",0
same,"damage to plant, AVEFA","rate 500, 20 DAA",0
same,"damage to plant, BEAVA","rate 500, 20 DAA",0
same,"damage to plant, BROTE","rate 500, 20 DAA",10
same,"damage to plant, BRSNN","rate 500, 20 DAA",20
same,"damage to plant, HORVW","rate 500, 20 DAA",0
same,"damage to plant, SINAR","rate 500, 20 DAA",0
same,ABUTH damage to plant (100=total damage; 0=no damage),"Rates 15, 20 DAA",0
same,AMARE damage to plant (100=total damage; 0=no damage),"Rates 15, 20 DAA",0
same,DIGSA damage to plant (100=total damage; 0=no damage),"Rates 15, 20 DAA",0
same,ECHCG damage to plant (100=total damage; 0=no damage),"Rates 15, 20 DAA",0
same,ORYSA damage to plant (100=total damage; 0=no damage),"Rates 15, 20 DAA",0
same,PANMI damage to plant (100=total damage; 0=no damage),"Rates 15, 20 DAA",0
same,SETFA damage to plant (100=total damage; 0=no damage),"Rates 15, 20 DAA",0
same,ABUTH damage to plant (100=total damage; 0=no damage),"Rates 30, 20 DAA",0
same,AMARE damage to plant (100=total damage; 0=no damage),"Rates 30, 20 DAA",0
same,DIGSA damage to plant (100=total damage; 0=no damage),"Rates 30, 20 DAA",60
same,ECHCG damage to plant (100=total damage; 0=no damage),"Rates 30, 20 DAA",20
same,ORYSA damage to plant (100=total damage; 0=no damage),"Rates 30, 20 DAA",0
same,PANMI damage to plant (100=total damage; 0=no damage),"Rates 30, 20 DAA",0
same,SETFA damage to plant (100=total damage; 0=no damage),"Rates 30, 20 DAA",0
same,ABUTH damage to plant (100=total damage; 0=no damage),"Rates 60, 20 DAA",0
same,AMARE damage to plant (100=total damage; 0=no damage),"Rates 60, 20 DAA",0
same,DIGSA damage to plant (100=total damage; 0=no damage),"Rates 60, 20 DAA",80
same,ECHCG damage to plant (100=total damage; 0=no damage),"Rates 60, 20 DAA",60
same,ORYSA damage to plant (100=total damage; 0=no damage),"Rates 60, 20 DAA",0
same,PANMI damage to plant (100=total damage; 0=no damage),"Rates 60, 20 DAA",0
same,SETFA damage to plant (100=total damage; 0=no damage),"Rates 60, 20 DAA",10
same,ABUTH damage to plant (100=total damage; 0=no damage),"Rates 130, 20 DAA",0
same,AMARE damage to plant (100=total damage; 0=no damage),"Rates 130, 20 DAA",0
same,DIGSA damage to plant (100=total damage; 0=no damage),"Rates 130, 20 DAA",90
same,ECHCG damage to plant (100=total damage; 0=no damage),"Rates 130, 20 DAA",90
same,ORYSA damage to plant (100=total damage; 0=no damage),"Rates 130, 20 DAA",0
same,PANMI damage to plant (100=total damage; 0=no damage),"Rates 130, 20 DAA",0
same,SETFA damage to plant (100=total damage; 0=no damage),"Rates 130, 20 DAA",60
same,ABUTH damage to plant (100=total damage; 0=no damage),"Rates 250, 20 DAA",0
same,AMARE damage to plant (100=total damage; 0=no damage),"Rates 250, 20 DAA",0
same,DIGSA damage to plant (100=total damage; 0=no damage),"Rates 250, 20 DAA",90
same,ECHCG damage to plant (100=total damage; 0=no damage),"Rates 250, 20 DAA",90
same,ORYSA damage to plant (100=total damage; 0=no damage),"Rates 250, 20 DAA",0
same,PANMI damage to plant (100=total damage; 0=no damage),"Rates 250, 20 DAA",0
same,SETFA damage to plant (100=total damage; 0=no damage),"Rates 250, 20 DAA",60
same,ABUTH damage to plant (100=total damage; 0=no damage),"Rates 500, 20 DAA",0
same,AMARE damage to plant (100=total damage; 0=no damage),"Rates 500, 20 DAA",0
same,DIGSA damage to plant (100=total damage; 0=no damage),"Rates 500, 20 DAA",90
same,ECHCG damage to plant (100=total damage; 0=no damage),"Rates 500, 20 DAA",90
same,ORYSA damage to plant (100=total damage; 0=no damage),"Rates 500, 20 DAA",0
same,PANMI damage to plant (100=total damage; 0=no damage),"Rates 500, 20 DAA",0
same,SETFA damage to plant (100=total damage; 0=no damage),"Rates 500, 20 DAA",90
